Several values for one entry are separate records, joined by “and”; a condition that tells them apart may be missing. Identical values can stand only once.
What was measured:
Assay type in all cases: in vivo, mouse
α-SMA = experiment: Immunohistochemistry of end-point KPC tumors: myCAF marker; settings: for Percent coverage of aSMA positive staining: Extended Data 6B, KPC tumours at endpoint, individual FOV
Procedure: (§1) All tissues or matrices, including patient TMAs, were fixed in 10% buffered formalin and embedded in paraffin. The 4-μm sections of samples were deparaffinized with xylene and rehydrated in graded ethanol washes. For immunohistochemistry, Bond Dewax Solution (AR9222) was used. Antigen retrieval was performed using Bond RX H2(30) protocol: HIER 30 min ER1 (citrate pH 6) OR ER2 (EDTA pH 9) at 100 °C. Slides were quenched in BOND Polymer Refine Detection (Leica Biosystems DS9800). […] Slides were digitized on an Aperio slide scanner and representative areas per tumor acquired and analyzed by researchers blinded to the conditions of the experiment.
(§2) Extended Data Fig. 6 PXS-5505 in combination with gemcitabine in a KPC model. a. Quantification of proliferating cells (Ki67 positive nuclear staining) in KPC tumors at end point, treated as indicated. 5 fields of view (500 μm × 500 μm) per mouse and 10 mice per cohort were scored. […] Quantification of percent coverage of αSMA positive staining in KPC tumors at end point, treated as indicated. 3 fields of view (1000 μm × 1000 μm) per mouse and 10 mice per cohort were scored. […] Quantification of percent coverage of PDGFR-ß positive staining in KPC tumors at end point, treated as indicated. 3 fields of view (1000 μm × 1000 μm) per mouse and 10 mice per cohort were scored. […] Quantification of pMLC2 positive staining in stromal regions of KPC tumors at end point, treated as indicated. 3 fields of view (500 μm × 500 μm) per mouse and 10 mice per cohort were scored. […] Quantification of tumor vasculature (CD31 positive staining) in KPC tumors at end point, treated as indicated. 3 fields of view (1000 μm × 1000 μm) per mouse and 10 mice per cohort were scored. […] Quantification of STAT3 activation (pSTAT3 positive nuclear staining) in KPC tumors at end point, treated as indicated. 3 fields of view (1000 μm × 1000 μm) per mouse and 5 mice per cohort were scored. […] Scale bars = 100 μm. g Quantification of macrophage infiltration (F4/80 positive staining) in KPC tumors at end point, treated as indicated. […]

PDGFR-β = experiment: Immunohistochemistry of end-point KPC tumors: panCAF marker; settings: for Percent coverage of PDGFR-ß positive staining: Extended Data 6C, KPC tumours at endpoint, individual FOV
Procedure: as §1, §2

KPC PDAC tumors = experiment: Bulk modulus (stiffness) by unconfined compression testing of end-point KPC tumors; design: key to Bulk modulus (stiffness) by unconfined compression testing: bulk elastic modulus in kPa; settings: for tumor bulk modulus (stiffness): end-point KPC tumors; for Bulk modulus (stiffness) by unconfined compression testing: endpoint PDAC tumours, individual tumours
Procedure: Fig. 4 PXS-5505 administered in a KPC in vivo survival study. a, Schematic of the KPC in vivo survival study. Presence of a primary tumor in KPC mice was confirmed by two independent researchers (positive diagnosis) before commencement of daily treatment (Tx) on one of four treatment arms as follows: vehicle, 0.9% saline; Gem, twice-weekly gemcitabine (100 mg kg^−1 i.p.); PXS-5505, daily PXS-5505 at 20 mg kg^−1 i.p.; and PXS-5505 + Gem, daily PXS-5505 at 20 mg kg^−1 i.p. + twice-weekly gemcitabine (100 mg kg^−1 i.p.). b, Table of median survival (since diagnosis/commencement of treatment) across the four treatment groups (n = 30 biologically independent animals (vehicle), n = 31 biologically independent animals (Gem), n = 36 biologically independent animals (PXS-5505), n = 46 biologically independent animals (PXS-5505 + Gem)). c, Kaplan–Meier curves for overall survival across treatment arms (n = 30 biologically independent animals (vehicle), n = 31 biologically independent animals (Gem), n = 36 biologically independent animals (PXS-5505), n = 46 biologically independent animals (PXS-5505 + Gem)). P values determined by log-rank (Mantel–Cox) test. d, Representative maximum intensity projections of SHG multiphoton imaging for tumors from each treatment group (n = 1 FOV taken from one biologically independent animal per group) at end point (scale bars, 100 μm) and quantification of SHG peak signal intensity (n = 5 biologically independent animals per group and five FOV per animal). Data are mean ± s.d. […] Quantification of metastases (n = 18 biologically independent animals (vehicle), n = 18 biologically independent animals (Gem), n = 17 biologically independent animals (PXS-5505), n = 15 biologically independent animals (PXS-5505 + Gem)). Data are mean ± s.d.
Unconfined compression of in vivo tissue samples was carried out on 2–3-mm cross-sectional slices using a TA Instruments Dynamic Hybrid Rheometer (DHR-3, TA Instruments). Tissue samples were placed between upper and lower parallel plate geometries. A constant linear compressive rate of 5 µm s^−1 was applied to the samples and axial force (N) and gap (mm) were collected every 0.01 s. Data were processed and a stress–strain curve for each replicate was obtained. Bulk elastic modulus (kPa) was obtained as the gradient of the linear region of the stress–strain curve corrected for cross-sectional area of sample. Data points represent individual biological replicates.

Structure (SMILES)	Percent coverage of aSMA positive staining (α-SMA)	α-SMA positivity (α-SMA; KPC tumors at end point)	Percent coverage of PDGFR-ß positive staining (PDGFR-β)	PDGFR-β positivity (PDGFR-β; KPC tumors at end point)	tumor bulk modulus (stiffness) (KPC PDAC tumors)	Bulk modulus (stiffness) by unconfined compression testing (KPC PDAC tumors)
Nc1ccn([C@@H]2O[C@H](CO)[C@@H](O)C2(F)F)c(=O)n1 [Gem, gemcitabine]	4.1422% and 8.8428% and 3.9128% and 4.9851% and 3.7908% and 3.4102% and 13.5235% and 10.8353% and 9.6686% and 1.9907% and 2.1823% and 5.2926% and 3.0437% and 5.4036% and 4.2058% and 8.1217% and 4.3012% and 3.1567% and 3.0046% and 1.1246% and 5.0654% and 7.8034% and 8.097% and 1.0094% and 7.1387% and 7.3633% and 7.7939% and 1.1199% and 2.3003% and 3.6904%	small decreases in positivity	7.4938% and 2.1875% and 12.1122% and 4.282% and 6.095% and 3.1691% and 15.1145% and 8.8619% and 8.0756% and 17.8714% and 24.3073% and 20.1172% and 13.2929% and 10.304% and 12.3137% and 10.967% and 18.634% and 4.9424% and 8.9111% and 7.7908% and 2.017% and 14.5457% and 8.9344% and 10.6658% and 5.631% and 1.6247% and 8.4484% and 0.5673% and 1.2057% and 0.8465%	small decreases in positivity	20.0 kPa	26.381 and 11.231 and 14.142 and 18.28 and 20.014
Cl.Cl.NC/C=C(\F)CS(=O)(=O)c1cccc2cccnc12.O [PXS-5505, (Z)-3-fluoro-4-(quinolin-8-ylsulfonyl)but-2-en-1-amine dihydrochloride monohydrate]	3.0735% and 6.2874% and 6.4326% and 3.0495% and 2.5796% and 2.9175% and 6.2269% and 8.7759% and 5.9209% and 8.6578% and 7.7662% and 8.3469% and 5.6452% and 6.7775% and 4.6186% and 7.36% and 5.232% and 2.4577% and 4.7266% and 9.579% and 5.032% and 5.1635% and 4.6717% and 8.3034% and 3.41% and 6.5089% and 4.6457% and 1.885% and 5.2516% and 5.0893%		6.765% and 8.3993% and 2.8629% and 12.2376% and 9.6982% and 4.3212% and 4.8524% and 9.496% and 7.1445% and 8.9357% and 7.1025% and 17.1234% and 12.5648% and 3.0699% and 20.4926% and 2.5465% and 8.2725% and 3.1151% and 4.1221% and 5.7763% and 4.8975% and 4.1951% and 11.8569% and 14.757% and 1.2435% and 4.7314% and 2.3407% and 3.9912% and 1.8413% and 6.5811%		moderate reduction in stiffness	1.01 and 4.478 and 8.389 and 5.347 and 1.487
